The results in this text go back to US12091426B2, “Bifunctional degraders of hematopoietic progenitor kinase and therapeutic uses thereof” (Nurix Therapeutics, Inc., priority 2021, dated 2024).

This experiment addresses T1, HPK1 (Homo sapiens, UniProt Q92918).
T1 construct: A HiBiT tag was introduced by CRISPR on the N terminus of HPK1 in Jurkat cells; host or cells: Jurkat cells (ATCC TIB-152), monoclonal line with CRISPR knock-in of HiBiT at the endogenous HPK1 locus
Nature of the experiment: HPK1 Cellular HiBit Degradation Assay. The conditions noted are these: HiBiT HPK1 Jurkat cells, 24 hrs; for DC50: concentration at which 50% of HPK1 was remaining, read-out: DC50 Category; for Dmax: Jurkat, read-out: Dmax Category. The experiment is classed as cell-based. The gist of the method: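 Jurkat cells with CRISPR knock-in N-terminal HiBiT-HPK1 were treated with CTMs (11-point, 3.16-fold, 10 uM to 0.1 nM final) for 24 hrs at 37° C. HiBiT lytic luminescence, with parental Jurkat as background and DMSO as 100%, gave % HPK1 remaining; four-parameter fit yielded DC50 and Dmax (100 minus lowest % remaining).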

[1] abbreviates: maximum degradation vs DMSO vehicle control.

T1 sequence (Q92918 whole entry): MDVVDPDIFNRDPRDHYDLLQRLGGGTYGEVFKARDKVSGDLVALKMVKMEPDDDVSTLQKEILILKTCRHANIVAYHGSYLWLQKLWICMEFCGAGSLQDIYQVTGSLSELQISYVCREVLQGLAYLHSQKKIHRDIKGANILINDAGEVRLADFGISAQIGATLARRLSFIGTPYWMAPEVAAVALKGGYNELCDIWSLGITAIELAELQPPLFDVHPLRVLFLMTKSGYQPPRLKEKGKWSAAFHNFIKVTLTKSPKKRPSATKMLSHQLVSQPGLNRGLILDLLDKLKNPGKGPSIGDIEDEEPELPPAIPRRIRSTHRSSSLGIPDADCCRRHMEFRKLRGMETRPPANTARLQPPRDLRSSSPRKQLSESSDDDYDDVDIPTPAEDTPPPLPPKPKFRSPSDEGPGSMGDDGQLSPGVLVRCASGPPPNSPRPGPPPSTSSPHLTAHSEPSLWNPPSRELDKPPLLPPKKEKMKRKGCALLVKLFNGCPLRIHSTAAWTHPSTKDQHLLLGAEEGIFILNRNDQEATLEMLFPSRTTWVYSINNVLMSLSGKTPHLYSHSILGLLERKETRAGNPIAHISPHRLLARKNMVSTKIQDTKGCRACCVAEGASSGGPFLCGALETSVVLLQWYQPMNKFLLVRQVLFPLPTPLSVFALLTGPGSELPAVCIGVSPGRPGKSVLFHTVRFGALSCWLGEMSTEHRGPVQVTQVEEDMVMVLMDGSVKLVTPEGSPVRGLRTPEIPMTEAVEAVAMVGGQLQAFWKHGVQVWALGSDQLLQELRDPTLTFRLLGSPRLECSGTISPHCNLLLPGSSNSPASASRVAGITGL

In the case of `Cc1cc(F)c(Nc2nc(-c3ccc4c(c3)N([C@H]3C[C@@H](N5CCCCC5)C3)C(=O)C43CCN(C(=O)C4CCN(C(=O)C5CCN(c6ccc(C7CCC(=O)NC7=O)cn6)CC5)CC4)CC3)cc3ncn(C(C)C)c23)cc1C(=O)NC(C)C` (mixture of isomers) [Example 72, 5-[(6-{1′-[1-(1-{5-[(3RS)-2,6-dioxopiperidin-3-yl]pyridin-2-yl}piperidine-4-carbonyl)piperidine-4-carbonyl]-2-oxo-1-[(1S,3S)-3-(piperidin-1-yl)cyclobutyl]-1,2-dihydrospiro[indole-3,4′-piperidin]-6-yl}-3-(propan-2-yl)-3H-imidazo[4,5-c]pyridin-4-yl)amino]-4-fluoro-2-methyl-N-(propan-2-yl)benzamide], the DC50 was in the range of 100 to 500 nM. For the same compound, the Dmax under setting [1] is 70 to 85%.
For `CC(C)n1cnc2cc(-c3ccc4c(c3)N([C@H]3C[C@@H](N5CCCCC5)C3)C(=O)C43CCN(C(=O)C4CCN(C(=O)C5CCN(c6ccc(C7CCC(=O)NC7=O)cn6)CC5)CC4)CC3)nc(Nc3ccccc3F)c21` (mixture of isomers) [Example 74, (3RS)-3-[6-(4-{4-[(6-{4-[(2-fluorophenyl)amino]-3-(propan-2-yl)-3H-imidazo[4,5-c]pyridin-6-yl}-2-oxo-1-[(1S,3S)-3-(piperidin-1-yl)cyclobutyl]-1,2-dihydrospiro[indole-3,4′-piperidin]-1′-yl)carbonyl]piperidine-1-carbonyl}piperidin-1-yl)pyridin-3-yl]piperidine-2,6-dione] the same measures were less than 100 nM and greater than 85%.
In the case of `CC(C)n1cnc2cc(-c3ccc4c(c3)N([C@H]3C[C@@H](N(C)C)C3)C(=O)C43CCN(C(=O)C4CCN(C(=O)C5CCN(c6ccc(C7CCC(=O)NC7=O)cn6)CC5)CC4)CC3)nc(Nc3ccccc3F)c21` (mixture of isomers) [Example 75, (3RS)-3-[6-(4-{4-[(6-{4-[(2-fluorophenyl)amino]-3-(propan-2-yl)-3H-imidazo[4,5-c]pyridin-6-yl}-2-oxo-1-[(1S,3S)-3-(dimethylamino)cyclobutyl]-1,2-dihydrospiro[indole-3,4′-piperidin]-1′-yl)carbonyl]piperidine-1-carbonyl}piperidin-1-yl)pyridin-3-yl]piperidine-2,6-dione], the DC50 fell in the range of 100 to 500 nM. Moreover, under setting [1], the Dmax was 70 to 85%.
For `CC(C)n1cnc2cc(-c3ccc4c(c3)N([C@H]3C[C@@H](N5CCCCC5)C3)C(=O)C43CCN(C(=O)C4CCN(C(=O)C5CCN(c6ccc(C7CCC(=O)NC7=O)cn6)CC5)CC4)CC3)nc(Oc3ccccc3F)c21` (mixture of isomers) [Example 76, (3RS)-3-(6-{4-[4-({6-[4-(2-fluorophenoxy)-3-(propan-2-yl)-3H-imidazo[4,5-c]pyridin-6-yl]-2-oxo-1-[(1S,3S)-3-(piperidin-1-yl)cyclobutyl]-1,2-dihydrospiro[indole-3,4′-piperidin]-1′-yl}carbonyl)piperidine-1-carbonyl]piperidin-1-yl}pyridin-3-yl)piperidine-2,6-dione] the same measures were 100 to 500 nM and greater than 85%.
Take `CC(C)n1cnc2cc(-c3ccc4c(c3)N([C@H]3C[C@@H](N5CCCCC5)C3)C(=O)C43CCN(C(=O)C4CCN(C(=O)C5CCN(c6ccc(C7CCC(=O)NC7=O)cn6)CC5)CC4)CC3)nc(Nc3ccncc3F)c21` (mixture of isomers) [Example 77, (3RS)-3-[6-(4-{4-[(6-{4-[(3-Fluoropyridin-4-yl)amino]-3-(propan-2-yl)-3H-imidazo[4,5-c]pyridin-6-yl}-2-oxo-1-[(1S,3S)-3-(piperidin-1-yl)cyclobutyl]-1,2-dihydrospiro[indole-3,4′-piperidin]-1′-yl)carbonyl]piperidine-1-carbonyl}piperidin-1-yl)pyridin-3-yl]piperidine-2,6-dione]: the DC50 is less than 100 nM. For the same compound, under setting [1], the Dmax was in the range of 70 to 85%.
The like results for `CC(C)n1cnc2cc(-c3ccc4c(c3)N([C@H]3C[C@@H](N5CCCCC5)C3)C(=O)C43CCN(C(=O)C4CCN(C(=O)C5CCN(c6ccc(C7CCC(=O)NC7=O)cn6)CC5)CC4)CC3)nc(NC3CCOCC3)c21` (mixture of isomers) [Example 78, (3RS)-3-[6-(4-{4-[(6-{4-[(oxan-4-yl)amino]-3-(propan-2-yl)-3H-imidazo[4,5-c]pyridin-6-yl}-2-oxo-1-[(1S,3S)-3-(piperidin-1-yl)cyclobutyl]-1,2-dihydrospiro[indole-3,4′-piperidin]-1′-yl)carbonyl]piperidine-1-carbonyl}piperidin-1-yl)pyridin-3-yl]piperidine-2,6-dione] were, in that order, less than 100 nM and 50 to 70%.
Regarding `CC(C)n1cnc2cc(-c3ccc4c(c3)N([C@H]3C[C@@H](N5CCCCC5)C3)C(=O)C43CCN(C(=O)C4CCN(C(=O)C5CCN(c6ccc(C7CCC(=O)NC7=O)nc6)CC5)CC4)CC3)nc(Nc3ccncc3F)c21` (mixture of isomers) [Example 82, (3RS)-3-[5-(4-{4-[(6-{4-[(3-fluoropyridin-4-yl)amino]-3-(propan-2-yl)-3H-imidazo[4,5-c]pyridin-6-yl}-2-oxo-1-[(1S,3S)-3-(piperidin-1-yl)cyclobutyl]-1,2-dihydrospiro[indole-3,4′-piperidin]-1′-yl)carbonyl]piperidine-1-carbonyl}piperidin-1-yl)pyridin-2-yl]piperidine-2,6-dione], the DC50 is less than 100 nM. The Dmax under setting [1] lay in the range of 70 to 85%.
As to `CC(C)n1cnc2cc(-c3ccc4c(c3)N([C@H]3C[C@@H](N5CCCCC5)C3)C(=O)C43CCN(C(=O)C4CCN(C(=O)C5CCN(c6ccc(C(=O)NC7CCC(=O)NC7=O)nc6)CC5)CC4)CC3)nc(Nc3ccccc3F)c21` (mixture of isomers) [Example 83, N-[(3RS)-2,6-dioxopiperidin-3-yl]-5-(4-{4-[(6-{4-[(2-fluorophenyl)amino]-3-(propan-2-yl)-3H-imidazo[4,5-c]pyridin-6-yl}-2-oxo-1-[(1S,3S)-3-(piperidin-1-yl)cyclobutyl]-1,2-dihydrospiro[indole-3,4′-piperidin]-1′-yl)carbonyl]piperidine-1-carbonyl}piperidin-1-yl)pyridine-2-carboxamide], the DC50 lay in the range of 100 to 500 nM. Moreover, under setting [1], the Dmax lay within 50 to 70%.
The like results for `CC(C)n1cnc2cc(-c3ccc4c(c3)N([C@H]3C[C@@H](N5CCCCC5)C3)C(=O)C43CCN(C(=O)C4CCN(C(=O)C5CCN(c6ccc7c(c6)C(=O)N(C6CCC(=O)NC6=O)C7=O)CC5)CC4)CC3)nc(NC3CC3)c21` (mixture of isomers) [Example 86, 5-{4-[4-({6-[4-(cyclopropylamino)-3-(propan-2-yl)-3H-imidazo[4,5-c]pyridin-6-yl]-2-oxo-1-[(1S,3S)-3-(piperidin-1-yl)cyclobutyl]-1,2-dihydrospiro[indole-3,4′-piperidin]-1′-yl}carbonyl)piperidine-1-carbonyl]piperidin-1-yl}-2-[(3RS)-2,6-dioxopiperidin-3-yl]-2,3-dihydro-1H-isoindole-1,3-dione] were, in that order, 100 to 500 nM and 70 to 85%.
For `CC(C)n1cnc2cc(-c3ccc4c(c3)N([C@H]3C[C@@H](N5CCCCC5)C3)C(=O)C43CCN(C(=O)C4CCN(C(=O)C5CCN(c6ccc7c(c6)C(=O)N(C6CCC(=O)NC6=O)C7=O)CC5)CC4)CC3)nc(Nc3ccccc3F)c21` (mixture of isomers) [Example 87, 2-[(3RS)-2,6-dioxopiperidin-3-yl]-5-(4-{4-[(6-{4-[(2-fluorophenyl)amino]-3-(propan-2-yl)-3H-imidazo[4,5-c]pyridin-6-yl}-2-oxo-1-[(1S,3S)-3-(piperidin-1-yl)cyclobutyl]-1,2-dihydrospiro[indole-3,4′-piperidin]-1′-yl)carbonyl]piperidine-1-carbonyl}piperidin-1-yl)-2,3-dihydro-1H-isoindole-1,3-dione] the same measures were less than 100 nM and 70 to 85%.
As to `CC(C)n1cnc2cc(-c3ccc4c(c3)N(C3CC(N5CCCCC5)C3)C(=O)C43CCN(C(=O)C4CCN(C(=O)C5CCN(c6ccc7c(c6)C(=O)N(C6CCC(=O)NC6=O)C7=O)CC5)CC4)CC3)nc(Nc3ccncc3F)c21` (racemic) [Example 88, 2-[(3RS)-2,6-dioxopiperidin-3-yl]-5-(4-{4-[(6-{4-[(3-Fluoropyridin-4-yl)amino]-3-(propan-2-yl)-3H-imidazo[4,5-c]pyridin-6-yl}-2-oxo-1-[(1S,3S)-3-(piperidin-1-yl)cyclobutyl]-1,2-dihydrospiro[indole-3,4′-piperidin]-1′-yl)carbonyl]piperidine-1-carbonyl}piperidin-1-yl)-2,3-dihydro-1H-isoindole-1,3-dione], the DC50 was less than 100 nM. Also, the “Dmax Category” value under setting [1] is listed as “C (C: >50%-<70%)”.
On to `CC(C)n1cnc2cc(-c3ccc4c(c3)N([C@H]3C[C@@H](N5CCCCC5)C3)C(=O)C43CCN(C(=O)C4CCN(C(=O)C5CCN(c6ncc(C7CCC(=O)NC7=O)cn6)CC5)CC4)CC3)nc(NC3CC3)c21` (mixture of isomers) [Example 89, (3RS)-3-(2-{4-[4-({6-[4-(cyclopropylamino)-3-(propan-2-yl)-3H-imidazo[4,5-c]pyridin-6-yl]-2-oxo-1-[(1S,3S)-3-(piperidin-1-yl)cyclobutyl]-1,2-dihydrospiro[indole-3,4′-piperidin]-1′-yl}carbonyl)piperidine-1-carbonyl]piperidin-1-yl}pyrimidin-5-yl)piperidine-2,6-dione], for which the DC50 lay within 100 to 500 nM. Under setting [1], the Dmax lay in the range of 50 to 70%.

For orientation: DC50 means the concentration at which degradation of the target reaches its halfway point. As a reminder, the Dmax is the largest share of the target that was removed.
